Measurements: patent publication US20130302442A1, “METHODS OF USING (4S,4AS,5AR,12AS)-4-DIMETHYLAMINO-3,10,12,12A-TETRAHYDROXY-7-[(METHOXY(METHYL)AMINO)-METHYL]-1,11-DIOXO-1,4,4A,5,5A,6,11,12A-OCTAHYDRO-NAPHTHACENE-2-CARBOXYLIC ACID AMIDE” (priority 2012, published 2013)
In brackets after ≈: the same amount, converted by molar mass. Like-named read-outs stand apart in the source and are kept apart here. Values belong to the compound of their own block, whether it stands above or below them.

Experiments:
P. acnes = experiment: In vitro MIC testing, antibacterial spectrum of activity; assay type: cell-based, Propionibacterium acnes
S. aureus = experiment: as above; assay type: cell-based, Staphylococcus aureus; settings: for MIC50 / MIC90: Staphylococcus aureus
S. epidermidis = experiment: as above; assay type: cell-based, Staphylococcus epidermidis; settings: for MIC50 / MIC90: Staphylococcus epidermidis
S. pneumoniae = experiment: as above; assay type: cell-based, Streptococcus pneumoniae
S. pyogenes = experiment: as above; assay type: cell-based
S. agalactiae = experiment: as above; assay type: cell-based
S. haemolyticus = experiment: as above; assay type: cell-based; settings: for MIC50 / MIC90: Staphylococcus haemolyticus
[1] = tested on: Streptococcus spp. [Group C]; experiment: as above; assay type: cell-based
E. faecalis = experiment: as above; assay type: cell-based; settings: for MIC50 / MIC90: Enterococcus faecalis
E. faecium = experiment: as above; assay type: cell-based; settings: for MIC50 / MIC90: Enterococcus faecium
[2] = tested on: methicillin-sensitive S. aureus (MSSA); experiment: In vitro MIC against isolates of MSSA; assay type: cell-based, Staphylococcus aureus; settings: for MIC Range / MIC50 / MIC90: MSSA (34 isolates); for MIC50 / MIC90: Staphylococcus aureus; for MIC90: read-out: MIC90
[3] = tested on: hospital-associated methicillin-resistant S. aureus (MRSA-HA); experiment: In vitro MIC against isolates of MRSA-HA; assay type: cell-based, Staphylococcus aureus; settings: for MIC50 / MIC90: Staphylococcus aureus
[4] = tested on: community-acquired methicillin-resistant S. aureus (MRSA-CA); experiment: In vitro MIC against isolates of MRSA-CA; assay type: cell-based, Staphylococcus aureus; settings: for MIC50 / MIC90: Staphylococcus aureus
[5] = MRSA, S. aureus [MRSA] (31 isolates), read-out: MIC50
[6] = MRSA, S. aureus [MRSA] (31 isolates), read-out: MIC90
[7] = MSSA, S. aureus [MSSA] (32 isolates), read-out: MIC50
[8] = MSSA, S. aureus [MSSA] (32 isolates), read-out: MIC90
[9] = S. epidermidis [MRSE] (32 isolates), read-out: MIC50
[10] = S. epidermidis [MRSE] (32 isolates), read-out: MIC90
[11] = S. epidermidis [MSSE] (31 isolates), read-out: MIC50
[12] = S. epidermidis [MSSE] (31 isolates), read-out: MIC90
[13] = S. haemolyticus (33 isolates), read-out: MIC50
[14] = S. haemolyticus (33 isolates), read-out: MIC90
[15] = S. epidermidis [MSSE] (31 isolates)
[16] = S. pneumoniae [PSSP] (32 isolates)
[17] = Streptococcus spp. [Group C] (30 isolates)

Compound: CC[C@H]1OC(=O)[C@H](C)[C@@H](O[C@H]2C[C@@](C)(OC)[C@@H](O)[C@H](C)O2)[C@H](C)[C@@H](O[C@@H]2O[C@H](C)C[C@H](N(C)C)[C@H]2O)[C@](C)(O)C[C@@H](C)C(=O)[C@H](C)[C@@H](O)[C@]1(C)O [Erythromycin]
MIC50 (P. acnes; Cutibacterium acnes, read-out: MIC50): ≤ 0.06 µg/mL
MIC90 (P. acnes; Cutibacterium acnes, read-out: MIC90): > 128 µg/mL
MIC50 (S. aureus; [5]): > 32 µg/mL
MIC90 (S. aureus; [6]): > 32 µg/mL
MIC50 (S. aureus; [7]): 0.5 µg/mL (≈ 0.681 µM)
MIC90 (S. aureus; [8]): > 32 µg/mL
MIC50 (S. epidermidis; [9]): > 32 µg/mL
MIC90 (S. epidermidis; [10]): > 32 µg/mL
MIC50 (S. epidermidis; [11]): 0.25 µg/mL (≈ 0.341 µM)
MIC90 (S. epidermidis; [12]): > 32 µg/mL
MIC50 (S. pneumoniae; Streptococcus pneumoniae, S. pneumoniae [PSSP] (32 isolates), read-out: MIC50): 0.03 µg/mL (≈ 0.0409 µM)
MIC90 (S. pneumoniae; Streptococcus pneumoniae, S. pneumoniae [PSSP] (32 isolates), read-out: MIC90): 2 µg/mL (≈ 2.73 µM)
MIC50 (S. pyogenes; Streptococcus pyogenes): 0.06 µg/mL (≈ 0.0818 µM)
MIC90 (S. pyogenes; Streptococcus pyogenes): 0.06 µg/mL (≈ 0.0818 µM)
MIC50 (S. agalactiae; Streptococcus agalactiae): 0.06 µg/mL (≈ 0.0818 µM)
MIC90 (S. agalactiae; Streptococcus agalactiae): > 16 µg/mL
MIC50 (S. haemolyticus; [13]): > 32 µg/mL
MIC90 (S. haemolyticus; [14]): > 32 µg/mL
MIC50 ([1]; Streptococcus spp. [Group C] (30 isolates), read-out: MIC50): 0.06 µg/mL (≈ 0.0818 µM)
MIC90 ([1]; Streptococcus spp. [Group C] (30 isolates), read-out: MIC90): 4 µg/mL (≈ 5.45 µM)
MIC50 (E. faecalis): > 32 µg/mL
MIC90 (E. faecalis): > 32 µg/mL
MIC50 (E. faecium): > 32 µg/mL
MIC90 (E. faecium): > 32 µg/mL
MIC50 (E. faecium; VRE): > 32 µg/mL
MIC90 (E. faecium; VRE): > 32 µg/mL

MIC Range [2]: 2 to 4 µg/mL
MIC50 [2]: 2 µg/mL (≈ 5.93 µM)
MIC90 [2]: 4 µg/mL (≈ 11.9 µM)
MIC Range ([3]; MRSA-HA (33 isolates)): 2 to 4 µg/mL
MIC50 ([3]; MRSA-HA (33 isolates)): 2 µg/mL (≈ 5.93 µM)
MIC90 ([3]; MRSA-HA (33 isolates)): 2 µg/mL (≈ 5.93 µM)
MIC Range ([4]; MRSA-CA (33 isolates)): 2 to 4 µg/mL
MIC50 ([4]; MRSA-CA (33 isolates)): 2 µg/mL (≈ 5.93 µM)
MIC90 ([4]; MRSA-CA (33 isolates)): 4 µg/mL (≈ 11.9 µM)
Compound: CC(=O)NC[C@H]1CN(c2ccc(N3CCOCC3)c(F)c2)C(=O)O1 [Linezolid]
susceptibility of the test organisms ([2]; all MSSA test organisms): susceptible
susceptibility of the test organisms ([3]; all MRSA-HA organisms): susceptible
susceptibility of the test organisms ([4]; all MRSA-CA test organisms): susceptible

Compound: Cc1onc(-c2ccccc2)c1C(=O)N[C@@H]1C(=O)N2[C@@H]1SC(C)(C)[C@@H]2C(=O)O [Oxacillin]
MIC Range (S. aureus; S. aureus [MSSA] (32 isolates)): 0.12 to 1 µg/mL
MIC50 (S. aureus; [5]): > 32 µg/mL
MIC90 (S. aureus; [6]): > 32 µg/mL
MIC50 (S. aureus; [7]): 0.5 µg/mL (≈ 1.25 µM)
MIC90 (S. aureus; [8]): 1 µg/mL (≈ 2.49 µM)
MIC Range (S. epidermidis; [15]): 0.06 to 0.25 µg/mL
MIC50 (S. epidermidis; [9]): 32 µg/mL (≈ 79.7 µM)
MIC90 (S. epidermidis; [10]): > 32 µg/mL
MIC50 (S. epidermidis; [11]): 0.12 µg/mL (≈ 0.299 µM)
MIC90 (S. epidermidis; [12]): 0.25 µg/mL (≈ 0.623 µM)
MIC50 (S. haemolyticus; [13]): 0.25 µg/mL (≈ 0.623 µM)
MIC90 (S. haemolyticus; [14]): > 32 µg/mL
MIC Range [2]: 0.25 to 2 µg/mL
MIC50 [2]: 0.25 µg/mL (≈ 0.623 µM)
MIC90 [2]: 0.5 µg/mL (≈ 1.25 µM)
MIC50 ([3]; MRSA-HA (33 isolates)): 32 µg/mL (≈ 79.7 µM)
MIC90 ([3]; MRSA-HA (33 isolates)): > 32 µg/mL
MIC50 ([4]; MRSA-CA (33 isolates)): 32 µg/mL (≈ 79.7 µM)
MIC90 ([4]; MRSA-CA (33 isolates)): > 32 µg/mL

Compound: CN[C@H](CC(C)C)C(=O)N[C@H]1C(=O)N[C@@H](CC(N)=O)C(=O)N[C@H]2C(=O)N[C@H]3C(=O)N[C@H](C(=O)N[C@H](C(=O)O)c4cc(O)cc(O)c4-c4cc3ccc4O)[C@H](O)c3ccc(c(Cl)c3)Oc3cc2cc(c3O[C@@H]2O[C@H](CO)[C@@H](O)[C@H](O)[C@H]2O[C@H]2C[C@](C)(N)[C@H](O)[C@H](C)O2)Oc2ccc(cc2Cl)[C@H]1O [Vancomycin]
MIC Range (P. acnes): 0.5-0.5 μg/mL
MIC Range (S. aureus; S. aureus [MRSA] (31 isolates)): 0.5 to 2 µg/mL
MIC Range (S. aureus; S. aureus [MSSA] (32 isolates)): 0.5 to 1 µg/mL
MIC50 (S. aureus; MRSA): 1 µg/mL (≈ 0.69 µM)
MIC90 (S. aureus; MRSA): 1 µg/mL (≈ 0.69 µM)
MIC50 (S. aureus; MSSA): 1 µg/mL (≈ 0.69 µM)
MIC90 (S. aureus; MSSA): 1 µg/mL (≈ 0.69 µM)
MIC Range (S. epidermidis; S. epidermidis [MRSE] (32 isolates)): 1 to 2 µg/mL
MIC Range (S. epidermidis; [15]): 1 to 2 µg/mL
MIC50 (S. epidermidis): 2 µg/mL (≈ 1.38 µM)
MIC90 (S. epidermidis): 2 µg/mL (≈ 1.38 µM)
MIC50 (S. epidermidis; MRSE): 2 µg/mL (≈ 1.38 µM)
MIC90 (S. epidermidis; MRSE): 2 µg/mL (≈ 1.38 µM)
MIC Range (S. pneumoniae; [16]): 0.06 to 0.25 µg/mL
MIC50 (S. pneumoniae; Streptococcus pneumoniae): 0.25 µg/mL (≈ 0.173 µM)
MIC90 (S. pneumoniae; Streptococcus pneumoniae): 0.25 µg/mL (≈ 0.173 µM)
MIC Range (S. pyogenes; S. pyogenes (32 isolates)): 0.25 to 0.5 µg/mL
MIC50 (S. pyogenes; Streptococcus pyogenes): 0.25 µg/mL (≈ 0.173 µM)
MIC90 (S. pyogenes; Streptococcus pyogenes): 0.25 µg/mL (≈ 0.173 µM)
MIC Range (S. agalactiae; S. agalactiae (31 isolates)): 0.25 to 2 µg/mL
MIC50 (S. agalactiae; Streptococcus agalactiae): 0.5 µg/mL (≈ 0.345 µM)
MIC90 (S. agalactiae; Streptococcus agalactiae): 0.5 µg/mL (≈ 0.345 µM)
MIC Range (S. haemolyticus; S. haemolyticus (33 isolates)): 0.5 to 2 µg/mL
MIC50 (S. haemolyticus): 1 µg/mL (≈ 0.69 µM)
MIC90 (S. haemolyticus): 1 µg/mL (≈ 0.69 µM)
MIC50 ([1]; Streptococcus): 0.25 µg/mL (≈ 0.173 µM)
MIC90 ([1]; Streptococcus): 0.5 µg/mL (≈ 0.345 µM)
MIC Range [1, 17]: 0.25 to 1 µg/mL
MIC Range (E. faecalis; E. faecalis [VSE] (31 isolates)): 0.5 to 4 µg/mL
MIC50 (E. faecalis): 1 µg/mL (≈ 0.69 µM)
MIC90 (E. faecalis): 2 µg/mL (≈ 1.38 µM)
MIC Range (E. faecium; E. faecium [VRE] (30 isolates)): >64 µg/mL
MIC Range (E. faecium; E. faecium [VSE] (32 isolates)): 0.25 to 2 µg/mL
MIC50 (E. faecium): 1 µg/mL (≈ 0.69 µM)
MIC90 (E. faecium): 1 µg/mL (≈ 0.69 µM)
MIC50 (E. faecium; VRE): > 64 µg/mL
MIC90 (E. faecium; VRE): > 64 µg/mL

Compound: Penicillin
MIC Range (P. acnes): 0.03 to 0.5 µg/mL
MIC50 (S. pneumoniae; [16]): ≦0.015 μg/mL
MIC90 (S. pneumoniae; [16]): 0.06 µg/mL
MIC Range (S. pneumoniae; [16]): ≦0.015-0.12 μg/mL
MIC50 (S. pyogenes; S. pyogenes (32 isolates)): ≦0.015 μg/mL
MIC90 (S. pyogenes; S. pyogenes (32 isolates)): ≦0.015 μg/mL
MIC Range (S. pyogenes; S. pyogenes (32 isolates)): ≦0.015-0.25 μg/mL
MIC50 (S. agalactiae; S. agalactiae (31 isolates)): 0.03 µg/mL
MIC90 (S. agalactiae; S. agalactiae (31 isolates)): 1 µg/mL
MIC Range (S. agalactiae; S. agalactiae (31 isolates)): ≦0.015-2 μg/mL
MIC50 [1, 17]: ≦0.015 μg/mL
MIC90 [1, 17]: ≦0.015 μg/mL
MIC Range [1, 17]: ≦0.015-0.03 μg/mL
